Our source for the IC50 values is PMC6518791, “Gluconate suppresses seizure activity in developing brains by inhibiting CLC-3 chloride channels” (Molecular Brain, 2019).

The structures appear in SMILES notation.

This test has as its target T1, CLC-3 Cl^− channels (neonatal mouse hippocampal CA3 pyramidal neurons) (Mus musculus, UniProt P51791).
T1 construct: gene Clcn3; native channel, CA3 pyramidal neurons in hippocampal slices (P10-12); current largely absent in Clcn3-/- neurons
T1 sequence (P51791 1-818): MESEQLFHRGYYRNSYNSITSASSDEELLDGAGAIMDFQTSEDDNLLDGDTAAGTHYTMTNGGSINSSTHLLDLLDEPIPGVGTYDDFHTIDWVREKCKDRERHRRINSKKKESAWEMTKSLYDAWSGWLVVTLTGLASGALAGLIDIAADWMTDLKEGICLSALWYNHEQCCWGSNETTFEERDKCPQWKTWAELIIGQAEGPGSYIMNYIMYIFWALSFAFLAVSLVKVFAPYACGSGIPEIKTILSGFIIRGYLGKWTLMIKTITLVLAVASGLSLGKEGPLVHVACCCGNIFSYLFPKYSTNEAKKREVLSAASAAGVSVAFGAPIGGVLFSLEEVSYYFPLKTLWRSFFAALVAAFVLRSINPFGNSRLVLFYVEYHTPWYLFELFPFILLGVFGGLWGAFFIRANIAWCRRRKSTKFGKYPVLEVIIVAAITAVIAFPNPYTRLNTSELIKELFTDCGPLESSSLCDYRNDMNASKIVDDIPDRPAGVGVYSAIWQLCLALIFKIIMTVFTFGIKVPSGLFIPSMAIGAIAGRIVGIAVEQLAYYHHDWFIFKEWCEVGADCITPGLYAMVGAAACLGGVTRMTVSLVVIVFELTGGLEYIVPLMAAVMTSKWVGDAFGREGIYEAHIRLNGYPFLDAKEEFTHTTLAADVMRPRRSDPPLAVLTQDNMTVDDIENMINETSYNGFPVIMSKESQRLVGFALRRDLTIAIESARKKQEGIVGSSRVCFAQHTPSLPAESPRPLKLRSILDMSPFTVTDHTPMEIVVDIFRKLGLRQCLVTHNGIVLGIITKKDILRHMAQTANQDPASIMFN
The test is described as follows: whole-cell patch clamp, voltage-dependent Cl- current in brain slices. Particulars: total neuronal Cl- current, no knockout control told.

As for `C[C@@H](O)CC(=O)O` [β-HB], the IC50 (as a rule, the midpoint of a concentration-inhibition curve) was around 6.2 mM.
